Some test systems named below: 786-0; ACHN; CAKI-1; COLO 205; HCT-116; HCT-15; HOP-62; K562; Malme-3M; NCI-H226; NCI-H23; NCI-H522; NCI/ADR-RES; OVCAR-3; OVCAR-5; RPMI-8226; SF-268; SK-MEL-5; UO-31; U-251.
Common to all, as to assay: inhibition of tumour cell growth, NCI panel, 48 h

The record followed here is ChEMBL document CHEMBL1201862, “PubChem BioAssay data set” (2004).

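Test compounds were applied to cells in 96-well plates for 48 hours at 5 doses. The concentration for 50% growth inhibition is given as GI50.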 Active and inactive are the calls of the source. No stated cut-off is given here; in the data, active = GI50 up to about 1.1 µM and inactive = higher. Where only a bound is given, the exact number is not on record here.

Take `COc1cc2nc(-c3ccc4ccccc4c3)nc(O)c2cc1OC`: the GI50 in the assay with 786-0 was 22.9 µM (inactive); in the assay with ACHN, 48.8 µM (inactive); in the assay with CAKI-1, > 100 µM (inactive); with COLO 205, > 100 µM (inactive); with HCT-116, > 100 µM (inactive); in the assay with HCT-15, above 100 µM. Moreover, the GI50 in the assay on HOP-62 was 19 µM (inactive); in the assay on K562, > 100 µM (inactive); in the assay with Malme-3M, 49.2 µM (inactive); in the assay with NCI-H226, > 100 µM (inactive); in the assay with NCI-H23 it was 49.2 µM (inactive); with NCI-H522, 56.1 µM (inactive). The GI50 in the assay with NCI/ADR-RES is 69.5 µM (inactive); with OVCAR-3 it was > 100 µM (inactive); with OVCAR-5 it was > 100 µM (inactive); in the assay with RPMI-8226, > 100 µM (inactive); with SF-268, 19.1 µM (inactive); in the assay on SK-MEL-5 it was > 100 µM (inactive). Moreover, the GI50 in the assay on UO-31 is > 100 µM (inactive).

For `O=C(Nc1cc(C(=O)Nc2cccc(S(=O)(=O)O)c2)cc(C(=O)Nc2cccc(S(=O)(=O)O)c2)c1)c1cccc(C(=O)Nc2cc(C(=O)Nc3cccc(S(=O)(=O)O)c3)cc(C(=O)Nc3cccc(S(=O)(=O)O)c3)c2)c1`, the GI50 was > 100 µM (inactive) in the assay on 786-0; > 100 µM (inactive) with ACHN; > 100 µM (inactive) in the assay on CAKI-1; > 100 µM (inactive) in the assay with COLO 205; > 100 µM (inactive) with HCT-116; 50.7 µM with HCT-15. Besides, the GI50 is > 100 µM (inactive) in the assay on HOP-62; 25.6 µM (inactive) in the assay with K562; > 100 µM (inactive) in the assay on Malme-3M; > 100 µM (inactive) in the assay on NCI-H226; > 100 µM (inactive) in the assay on NCI-H23; > 100 µM (inactive) in the assay with NCI-H522. Further, the GI50 in the assay with NCI/ADR-RES, with OVCAR-3, in the assay with OVCAR-5, in the assay on RPMI-8226, in the assay on SF-268 and with SK-MEL-5 was > 100 µM (inactive) in each case. For the same compound, the GI50 in the assay with U-251 and with UO-31 was > 100 µM (inactive) in each case.

For the compound `O=[N+]([O-])c1cc(-c2ccc([As](=O)(O)O)cc2)ccc1[As](=O)(O)O`, the GI50 with 786-0 was > 100 µM (inactive); in the assay on ACHN, > 100 µM (inactive); in the assay with CAKI-1 it was > 100 µM (inactive); with HCT-116 it was > 100 µM (inactive); with HCT-15 it was above 100 µM; in the assay with HOP-62, > 100 µM (inactive). Further, the GI50 with K562, in the assay on Malme-3M, in the assay on NCI-H226, with NCI-H23, with NCI-H522 and in the assay on NCI/ADR-RES was > 100 µM (inactive) each time. The GI50 in the assay with OVCAR-3, with OVCAR-5, in the assay with RPMI-8226, with SF-268, with SK-MEL-5 and in the assay with U-251 was > 100 µM (inactive) throughout. Further, the GI50 in the assay with UO-31 was > 100 µM (inactive).

For `O=C(O)c1ccc2c(O)c(O)ccc2c1`, the GI50 in the assay on 786-0 is 18.1 µM (inactive); with ACHN it was 15.8 µM (inactive); with CAKI-1, 21.6 µM (inactive); with COLO 205 it was 26.2 µM (inactive); in the assay with HCT-116 it was 25.9 µM (inactive); in the assay with HCT-15, 21.6 µM. The GI50 with HOP-62 is 20.7 µM (inactive); with K562, 7.8 µM (inactive); with Malme-3M it was 38.9 µM (inactive); in the assay on NCI-H226 it was 18.7 µM (inactive); in the assay with NCI-H23, 22 µM (inactive); in the assay on NCI-H522 it was 16.9 µM (inactive). Also, the GI50 in the assay on NCI/ADR-RES is 19.5 µM (inactive); in the assay on OVCAR-3, 18.8 µM (inactive); in the assay on OVCAR-5, 26.3 µM (inactive); with RPMI-8226 it was 15.4 µM (inactive); in the assay on SF-268 it was 8.47 µM (inactive); in the assay on SK-MEL-5 it was 17.3 µM (inactive). In addition, the values for the GI50 with U-251 and in the assay with UO-31 were 19.9 µM (inactive) and 19.5 µM (inactive), respectively.

Regarding `O=C1NC(c2ccccc2)N=C2Oc3ccccc3C=C12` (stereo not drawn), the GI50 with 786-0 was 0.281 µM (active); in the assay with ACHN, 2.87 µM (inactive); in the assay on CAKI-1, 0.0255 µM (active); with COLO 205 it was 0.0731 µM (active); in the assay with HCT-116, 0.263 µM (active); with HCT-15, 0.153 µM. Further, the GI50 was 0.543 µM (active) in the assay with HOP-62; 1.28 µM (inactive) with K562; 0.122 µM (active) in the assay with Malme-3M; 0.579 µM (active) in the assay with NCI-H226; 0.151 µM (active) with NCI-H23; 0.622 µM (active) with NCI-H522. Moreover, the GI50 is 0.533 µM (active) in the assay with NCI/ADR-RES; 0.0897 µM (active) in the assay on OVCAR-3; 1.04 µM (active) in the assay on OVCAR-5; 19.3 µM (inactive) in the assay on RPMI-8226; 5.98 µM (inactive) with SF-268; 0.185 µM (active) in the assay on SK-MEL-5. The figures for the GI50 in the assay with U-251 and in the assay on UO-31 were 4.21 µM (inactive) and 8.22 µM (inactive), respectively.

Take `O=[N+]([O-])c1c(F)c(F)c2c(c1F)N(CCCCCl)c1ccccc1S2`: the GI50 in the assay on 786-0 was 9.02 µM (inactive); in the assay with ACHN, 16.5 µM (inactive); with CAKI-1, 6.98 µM (inactive); in the assay with COLO 205 it was 14.4 µM (inactive); with HCT-116, 5.05 µM (inactive); in the assay on HCT-15, 1.6 µM. Besides, the GI50 in the assay with HOP-62 was 14.3 µM (inactive); in the assay with K562, 2.05 µM (inactive); in the assay on Malme-3M, 16.6 µM (inactive); in the assay on NCI-H226 it was 17.7 µM (inactive); in the assay on NCI-H23, 7.91 µM (inactive); in the assay on NCI-H522 it was 4.9 µM (inactive). The GI50 in the assay with NCI/ADR-RES was 17.5 µM (inactive); in the assay with OVCAR-3 it was 7.01 µM (inactive); in the assay with OVCAR-5 it was 18.8 µM (inactive); with RPMI-8226, 3.47 µM (inactive); in the assay with SF-268, 6.04 µM (inactive); with SK-MEL-5 it was 12.2 µM (inactive). For the same compound, the GI50 in the assay on U-251 is 12.7 µM (inactive); in the assay on UO-31 it was 16.9 µM (inactive).

With `CC(=O)c1cccc(NC(=O)C(=O)c2c(O)oc3ccccc3c2=O)c1`, the GI50 is > 100 µM (inactive) in the assay on 786-0; > 100 µM (inactive) in the assay with ACHN; > 100 µM (inactive) with CAKI-1; > 100 µM (inactive) in the assay on HCT-116; above 100 µM in the assay on HCT-15; > 100 µM (inactive) in the assay on HOP-62. Also, the GI50 with K562, in the assay with Malme-3M, in the assay with NCI-H226, with NCI-H23, in the assay with NCI-H522 and with NCI/ADR-RES was > 100 µM (inactive) each time. Besides, the GI50 with OVCAR-3, in the assay on OVCAR-5, with RPMI-8226, in the assay with SF-268, in the assay with SK-MEL-5 and in the assay on U-251 was > 100 µM (inactive) throughout. Further, in the assay on UO-31, the GI50 was > 100 µM (inactive).

On to `CC(C)C1CC(CO)(CNc2cc(Cl)nc(N)n2)C1` (stereo not drawn), for which the GI50 with 786-0 was > 100 µM (inactive); in the assay on ACHN, > 100 µM (inactive); with CAKI-1, > 100 µM (inactive); with COLO 205, > 100 µM (inactive); in the assay on HCT-116, 41.3 µM (inactive); with HCT-15, 22.5 µM. Also, the GI50 with HOP-62 was > 100 µM (inactive); with K562 it was 9.57 µM (inactive); in the assay with Malme-3M, 39.2 µM (inactive); in the assay with NCI-H226, 13.5 µM (inactive); in the assay on NCI-H522, 39 µM (inactive); in the assay with NCI/ADR-RES, 16.8 µM (inactive). For the same compound, the GI50 is 17.9 µM (inactive) with OVCAR-3; 81.8 µM (inactive) in the assay with OVCAR-5; 11.8 µM (inactive) in the assay on RPMI-8226; 5 µM (inactive) in the assay with SF-268; 3.55 µM (inactive) with SK-MEL-5; 44 µM (inactive) in the assay with U-251. Moreover, the GI50 in the assay with UO-31 is 54 µM (inactive).

Consider `O=C(N/N=C(COc1ccc([N+](=O)[O-])cc1)\N=C\c1ccncc1)c1ccncc1`, for which the GI50 is > 100 µM (inactive) in the assay with 786-0; > 100 µM (inactive) in the assay with ACHN; > 100 µM (inactive) in the assay on CAKI-1; > 100 µM (inactive) with COLO 205; > 100 µM (inactive) in the assay with HCT-116; above 100 µM with HCT-15. Besides, the GI50 in the assay on HOP-62, in the assay on K562, with Malme-3M, in the assay on NCI-H226, in the assay on NCI-H23 and in the assay with NCI-H522 was > 100 µM (inactive) in each case. The GI50 with NCI/ADR-RES, in the assay with OVCAR-3, in the assay with OVCAR-5, with RPMI-8226, in the assay on SF-268 and with U-251 was > 100 µM (inactive) each time.

Regarding `COC(=O)C1(C)CCCC2(C)c3cc(OC)ccc3C(=O)C(Br)C12` (stereo not drawn), the GI50 is 1.84 µM (inactive) with 786-0; 4.05 µM (inactive) with CAKI-1; 2.63 µM (inactive) in the assay on COLO 205; 2.79 µM (inactive) with HCT-116; above 10 µM with HCT-15; > 10 µM (inactive) with HOP-62. Also, the GI50 in the assay with K562 was 3.68 µM (inactive); in the assay on Malme-3M, 2.72 µM (inactive); in the assay with NCI-H226 it was > 10 µM (inactive); in the assay with NCI-H23, > 10 µM (inactive); with NCI-H522, 2.86 µM (inactive); in the assay with NCI/ADR-RES it was > 10 µM (inactive). Also, the GI50 in the assay on OVCAR-3 is 5.35 µM (inactive); with OVCAR-5, 8.02 µM (inactive); in the assay on RPMI-8226, 2.24 µM (inactive); in the assay with SF-268, > 10 µM (inactive); in the assay on SK-MEL-5, > 10 µM (inactive); in the assay with U-251, > 10 µM (inactive). For the same compound, in the assay with UO-31, the GI50 was 1.84 µM (inactive).
